The target of one data set is T1, mouse DGAT1 (Mus musculus, UniProt Q9Z2A7).
T1 construct: made in house; host or cells: insect cells (High Five, Sf9, Sf21, etc.), baculovirus expression system (Invitrogen)
T1 sequence (Q9Z2A7 1-498): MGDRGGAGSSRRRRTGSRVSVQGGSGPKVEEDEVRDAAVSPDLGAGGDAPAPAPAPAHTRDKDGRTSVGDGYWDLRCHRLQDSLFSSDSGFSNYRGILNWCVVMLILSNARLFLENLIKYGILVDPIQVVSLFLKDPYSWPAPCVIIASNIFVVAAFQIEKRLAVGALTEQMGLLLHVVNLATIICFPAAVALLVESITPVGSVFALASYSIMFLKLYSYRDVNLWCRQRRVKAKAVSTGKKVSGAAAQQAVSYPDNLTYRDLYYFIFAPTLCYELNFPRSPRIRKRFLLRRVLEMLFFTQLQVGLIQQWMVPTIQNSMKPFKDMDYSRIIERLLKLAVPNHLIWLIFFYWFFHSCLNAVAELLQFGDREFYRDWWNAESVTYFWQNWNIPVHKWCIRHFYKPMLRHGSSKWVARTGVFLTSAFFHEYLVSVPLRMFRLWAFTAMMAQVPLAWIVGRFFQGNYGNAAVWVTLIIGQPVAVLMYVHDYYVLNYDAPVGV
Nature of the data set: DGAT1 inhibitory effect test (microsome fraction, [14C]-oleoyl-CoA, triglyceride radioactivity by TLC). It counts as biochemical. The following applies: 0.5 h; concentration of the test compound 0.1 μg/ml; mouse DGAT1 microsomes, 23° C., 30 minutes; read-out: Inhibitory ratio. In outline:
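Baculovirus-expressed mouse DGAT1 insect-cell microsomes (10 μg) were incubated 30 min at 23 °C, pH 8.0, with 0.5 mM 1,2-dioleoyl-sn-glycerol, 30 μM [14C]-oleoyl-CoA and 0.5% Triton X-100. [14C]-triglyceride was quantified after heptane extraction and TLC. Percent inhibition was taken against vehicle control, with 0-min background subtracted.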

Drawing on patent US20070249620A1, “Urea Derivative” (priority 2004, published 2007), this text covers melting point and inhibition for 24 compounds.

In the case of `O=C(Nc1ccc2c(c1)CCN(C(=O)Nc1ccc(OCC(O)CO)cc1Cl)C2)Nc1ccccc1F` (stereo not drawn) [Example 290, 6-[3-(2-fluoro-phenyl)-ureido]-3,4-dihydro-1H-isoquinoline-2-carboxylic acid [2-chloro-4-(2,3-dihydroxy-propoxy)-phenyl]-amide], the melting point (in general, the temperature of the solid-liquid transition) lay within 164 to 167 °C. For the same compound, the inhibition at 0.1 µg/mL at mouse DGAT1 is at least 50%.
`CCOc1cccc(NC(=O)Nc2ccc3c(c2)CCN(C(=O)Nc2ccc(OCC(O)CO)cc2Cl)C3)c1` (stereo not drawn) [Example 291, 6-[3-(3-ethoxy-phenyl)-ureido]-3,4-dihydro-1H-isoquinoline-2-carboxylic acid [2-chloro-4-(2,3-dihydroxy-propoxy)-phenyl]-amide]: the melting point was 134 to 139 °C. Further, the inhibition at 0.1 µg/mL on mouse DGAT1 is at least 50%.
As for `O=C(Nc1ccc(C2CCN(C(=O)Nc3ccc(OCC(O)CO)cc3Cl)CC2)cc1)Nc1ccccc1F` (stereo not drawn) [Example 292, 4-{4-[3-(2-fluoro-phenyl)-ureido]-phenyl}-piperidine-1-carboxylic acid [2-chloro-4-(2,3-dihydroxy-propoxy)-phenyl]-amide], the melting point lay in the range of 170 to 175 °C. Besides, the inhibition at 0.1 µg/mL at mouse DGAT1 is at least 50%.
The corresponding values for `COc1ccc(C)cc1NC(=O)Nc1ccc2c(c1)CCN(C(=O)Nc1ccc(OCC(O)CO)cc1C(F)(F)F)C2` (stereo not drawn) [Example 293, 6-[3-(2-methoxy-5-methyl-phenyl)-ureido]-3,4-dihydro-1H-isoquinoline-2-carboxylic acid [4-(2,3-dihydroxy-propoxy)-2-trifluoromethyl-phenyl]-amide] are 174 to 176 °C and at least 50%.
As for `COc1ccc(C)cc1NC(=O)Nc1ccc(N2CCN(C(=O)Nc3ncccc3C)CC2)cc1` [Example 294, 4-{4-[3-(2-methoxy-5-methyl-phenyl)-ureido]-phenyl}-piperazine-1-carboxylic acid (3-methyl-pyridin-2-yl)-amide], the melting point lay in the range of 209 to 211 °C. Also, the inhibition at 0.1 µg/mL on mouse DGAT1 is at least 50%.
As for `Cc1cccnc1NC(=O)N1CCN(c2ccc(NC(=O)Nc3ccccc3F)cc2)CC1` [Example 295, 4-{4-[3-(2-fluoro-phenyl)-ureido]-phenyl}-piperazine-1-carboxylic acid (3-methyl-pyridin-2-yl)-amide], the melting point is > 250 °C (dec.). Further, the inhibition at 0.1 µg/mL at mouse DGAT1 is at least 50%.
In turn, `COc1ccc(F)cc1NC(=O)Nc1ccc(N2CCN(C(=O)Nc3ncccc3C)CC2)cc1` [Example 296, 4-{4-[3-(5-fluoro-2-methoxy-phenyl)-ureido]-phenyl}-piperazine-1-carboxylic acid (3-methyl-pyridin-2-yl)-amide] yielded a melting point of 206 to 208 °C. For the same compound, the inhibition at 0.1 µg/mL on mouse DGAT1 was at least 50%.
Regarding `COc1ccc(F)cc1NC(=O)Nc1ccc(N2CCN(C(=O)Nc3ncccc3C)CC2)nc1` [Example 298, 4-{5-[3-(5-fluoro-2-methoxy-phenyl)-ureido]-pyridin-2-yl}-piperazine-1-carboxylic acid (3-methyl-pyridin-2-yl)-amide], the melting point lay in the range of 196 to 198 °C. On mouse DGAT1, the inhibition at 0.1 µg/mL is at least 50%.
The compound `CCOc1ccc(Cl)cc1NC(=O)Nc1ccc(N2CCN(C(=O)Nc3ncccc3C)CC2)nc1` [Example 299, 4-{5-[3-(5-chloro-2-ethoxy-phenyl)-ureido]-pyridin-2-yl}-piperazine-1-carboxylic acid (3-methyl-pyridin-2-yl)-amide] registered a melting point of 214 to 215 °C. For the same compound, the inhibition at 0.1 µg/mL on mouse DGAT1 was at least 50%.
In turn, `CCOc1ccc(F)cc1NC(=O)Nc1ccc(N2CCN(C(=O)Nc3ncccc3C)CC2)nc1` [Example 300, 4-{5-[3-(2-ethoxy-5-fluoro-phenyl)-ureido]-pyridin-2-yl}-piperazine-1-carboxylic acid (3-methyl-pyridin-2-yl)-amide] yielded a melting point of 180 to 185 °C. Besides, the inhibition at 0.1 µg/mL at mouse DGAT1 was at least 50%.
`COc1ccc(C)cc1NC(=O)Nc1ccc(N2CCN(C(=O)Nc3ncccc3C)CC2)nc1` [Example 301, 4-{5-[3-(2-methoxy-5-methyl-phenyl)-ureido]-pyridin-2-yl}-piperazine-1-carboxylic acid (3-methyl-pyridin-2-yl)-amide]: the melting point fell in the range of 216 to 218 °C. Besides, the inhibition at 0.1 µg/mL at mouse DGAT1 was at least 50%.
On to `Cc1cccnc1NC(=O)N1CCN(c2ccc(NC(=O)Nc3ccccc3F)cn2)CC1` [Example 302, 4-{5-[3-(2-fluoro-phenyl)-ureido]-pyridin-2-yl}-piperazine-1-carboxylic acid (3-methyl-pyridin-2-yl)-amide], for which the melting point is 213 to 215 °C. Further, the inhibition at 0.1 µg/mL at mouse DGAT1 is at least 50%.
Take `COc1cccc(NC(=O)Nc2ccc(N3CCN(C(=O)Nc4ncccc4C)CC3)cc2)c1` [Example 303, 4-{4-[3-(3-methoxy-phenyl)-ureido]-phenyl}-piperazine-1-carboxylic acid (3-methyl-pyridin-2-yl)-amide]: the melting point was in the range of 191 to 193 °C. Further, the inhibition at 0.1 µg/mL at mouse DGAT1 is at least 50%.
As to `CCOc1ccccc1NC(=O)Nc1ccc(N2CCN(C(=O)Nc3ncccc3C)CC2)cc1` [Example 304, 4-{4-[3-(2-ethoxy-phenyl)-ureido]-phenyl}-piperazine-1-carboxylic acid (3-methyl-pyridin-2-yl)-amide], the melting point was in the range of 110 to 112 °C. Besides, the inhibition at 0.1 µg/mL at mouse DGAT1 is at least 50%.
For `CCOc1cccc(NC(=O)Nc2ccc(N3CCN(C(=O)Nc4ncccc4C)CC3)cc2)c1` [Example 305, 4-{4-[3-(3-ethoxy-phenyl)-ureido]-phenyl}-piperazine-1-carboxylic acid (3-methyl-pyridin-2-yl)-amide] the same measures were 171 to 173 °C and at least 50%.
In turn, `COc1cc(NC(=O)Nc2ccc(N3CCN(C(=O)Nc4ncccc4C)CC3)cc2)cc(OC)c1` [Example 306, 4-{4-[3-(3,5-dimethoxy-phenyl)-ureido]-phenyl}-piperazine-1-carboxylic acid (3-methyl-pyridin-2-yl)-amide] yielded a melting point of 188 to 190 °C. In addition, the inhibition at 0.1 µg/mL on mouse DGAT1 is at least 50%.
Regarding `CCOc1ccc(C)cc1NC(=O)Nc1ccc(N2CCN(C(=O)Nc3ncccc3C)CC2)nc1` [Example 307, 4-{5-[3-(2-ethoxy-5-methyl-phenyl)-ureido]-pyridin-2-yl}-piperazine-1-carboxylic acid (3-methyl-pyridin-2-yl)-amide], the melting point is 198 to 200 °C. For the same compound, on mouse DGAT1, the inhibition at 0.1 µg/mL was at least 50%.
For `COc1ccc(Cl)cc1NC(=O)Nc1ccc(N2CCN(C(=O)Nc3ncccc3C)CC2)nc1` [Example 308, 4-{5-[3-(5-chloro-2-methoxy-phenyl)-ureido]-pyridin-2-yl}-piperazine-1-carboxylic acid (3-methyl-pyridin-2-yl)-amide], the melting point lay within 203 to 205 °C. Besides, the inhibition at 0.1 µg/mL on mouse DGAT1 was at least 50%.
Compound `COc1ccccc1NC(=O)Nc1ccc(N2CCN(C(=O)Nc3ncccc3C)CC2)cc1` [Example 309, 4-{4-[3-(2-methoxy-phenyl)-ureido]-phenyl}-piperazine-1-carboxylic acid (3-methyl-pyridin-2-yl)-amide] had a melting point of 207 to 209 °C. Also, on mouse DGAT1, the inhibition at 0.1 µg/mL was at least 50%.
`COc1ccc(Cl)cc1NC(=O)Nc1ccc(N2CCN(C(=O)Nc3ncccc3C)CC2)cc1` [Example 310, 4-{4-[3-(5-chloro-2-methoxy-phenyl)-ureido]-phenyl}-piperazine-1-carboxylic acid (3-methyl-pyridin-2-yl)-amide] gave a melting point of 163 to 165 °C. Further, the inhibition at 0.1 µg/mL at mouse DGAT1 was at least 50%.
The corresponding values for `CCOc1ccc(C)cc1NC(=O)Nc1ccc(N2CCN(C(=O)Nc3ncccc3C)CC2)cc1` [Example 311, 4-{4-[3-(2-ethoxy-5-methyl-phenyl)-ureido]-phenyl}-piperazine-1-carboxylic acid (3-methyl-pyridin-2-yl)-amide] are 206 to 208 °C and at least 50%.
For `COc1ccc(C)cc1NC(=O)Nc1ccc(N2CCN(C(=O)Nc3ncccc3C)CC2)c(F)c1` [Example 312, 4-{2-fluoro-4-[3-(2-methoxy-5-methyl-phenyl)-ureido]-phenyl}-piperazine-1-carboxylic acid (3-methyl-pyridin-2-yl)-amide] the same measures were 188 to 190 °C and at least 50%.
Consider `COc1ccc(C)cc1NC(=O)Nc1ccc(N2CCN(C(=O)Nc3ncccc3C)CC2)c(C)c1` [Example 313, 4-{4-[3-(2-methoxy-5-methyl-phenyl)-ureido]-2-methyl-phenyl}-piperazine-1-carboxylic acid (3-methyl-pyridin-2-yl)-amide], for which the melting point was 144 to 146 °C. The inhibition at 0.1 µg/mL on mouse DGAT1 is at least 50%.
For `COc1ccc(C)cc1NC(=O)Nc1ccc(C2=CCN(C(=O)Nc3ncccc3C)CC2)cc1` [Example 324, 4-{4-[3-(2-methoxy-5-methyl-phenyl)-ureido]-phenyl}-3,6-dihydro-2H-pyridine-1-carboxylic acid (3-methyl-pyridin-2-yl)-amide] the same measures were 195 to 198 °C and at least 50%.
